Data on 4 molecules can be found in patent publication US20240350494A1, “THERAPEUTIC MODULATION OF INTEGRINS” (Pliant Therapeutics, Inc., priority 2021, published 2024).

Test [1] has as its system Type I Collagen gene Col1a1 expression. Description: Precision cut lung slices, acute bleomycin exposure, Col1a1 expression. As to conditions: for Type I Collagen gene Col1a1 expression, normalized to DMSO control slices: 3 days culture, integrin inhibitors at IC50 for TGF-beta activation, pan-αV and ALK5 inhibitors at 10× reported IC50, FIG. 3A. The class given is cell-based, mice (C57BL/6). As to the method: Mice (C57BL/6) were administered 3 U/kg of bleomycin (Teva Pharmaceuticals; North Wales, PA) on day 0 via oropharyngeal aspiration while under anesthesia. On day 14, precision cut lung slices were obtained. Following euthanization, 2% low gelling temp agarose was injected into the mouse lungs via the trachea. […] The lobes were then subjected to precision slicing to obtain samples for culture using a microtome (Compresstome VF-300-OZ, Precisionary; Greenville, NC). Individual slices were distributed in a multiwell culture plate and cultured for 3 days under control (DMSO) and test compound conditions.

The next test concerns lung Col1a1 expression. Description: Precision cut lung slices, chronic bleomycin exposure, Col1a1 expression. The class given is cell-based, mice (C57BL/6). Particulars: 7 days culture, ALK5 inhibitor at 10× IC50; for lung slice Col1a1 expression compared to DMSO vehicle control slices: nintedanib and pirfenidone at 10× therapeutic concentrations, FIG. 4A. As for the experimental part:
(§1) Mice (C57BL/6) were administered 3 U/kg of bleomycin (Teva Pharmaceuticals; North Wales, PA) on Day 0 and 1 U/kg of bleomycin on days 14, 28, 42 and 56 via oropharyngeal aspiration while under anesthesia. At day 70, 14 days after the final bleomycin insult, precision cut lung slices were obtained. Following euthanization, 2% low gelling temp agarose was injected into the mouse lungs via the trachea. […] The lobes were then subjected to precision slicing to obtain samples for culture using a microtome (Compresstome VF-300-OZ, Precisionary; Greenville, NC). Individual slices were distributed in a multiwell culture plate and cultured for 7 days under control (DMSO) and test compound conditions. The viability of the slices over the course of culturing was confirmed by WST-1 assay of mitochondrial activity.
During the culture period, slices in the control group were treated with DMSO and slices in the test group were treated with a DMSO solution of one of: the selective antibody αVβ6 inhibitor 3G9; the αVβ1-selective small molecule inhibitor; a combination of the selective antibody αVβ6 inhibitor 3G9 and the αVβ1-selective small molecule inhibitor; compound 5; and the small molecule ALK5 inhibitor. The selective αVβ1 and αVβ6 integrin inhibitors were analyzed at ≥their respective IC90 concentrations for inhibition of TGF-beta activation. Compound 5 was run at approximate IC50 for inhibition of TGF-beta activation by αVβ6.
as §1, with “following” for “after”
During the culture period, slices in the control group were treated with DMSO and slices in the test group were treated with a DMSO solution of one of: compound 5; nintedanib; pirfenidone; a combination of nintedanib and compound 5; a combination of pirfenidone and compound 5; or the small molecule ALK5 inhibitor. Compound 5 was […] effective to equal or exceed its respective IC50 values at αVβ6 and αVβ1. […] Nintendanib and pirfenidone were analyzed at concentrations 10× their reported therapeutic concentrations.

In the next test the test system is COL1A1 expression. Description: Precision cut lung slices from human IPF explants, COL1A1 expression. The class given is cell-based. As to conditions: for COL1A1 expression, treatment alone: PCLS from 5-7 IPF samples, seven days, nintedanib 75 nM, pirfenidone 50 μm. From the text:
Explanted lung tissue was obtained from human IPF subjects and inflated with agarose as described in the preceding examples. Biopsy cores were obtained from the agarose-inflated lung tissue. The biopsy cores were subjected to precision slicing to obtain several hundred μm thick. Individual slices were distributed in a multiwell culture plate and cultured for […] under control (DMSO) and test compound conditions. The viability of the slices over the course of culturing was confirmed by WST-1 assay of mitochondrial activity.
PCLS from 5-7 idopathic pulmonary fibrosis (IPF) lung tissue samples were cultured for seven days with one of: DMSO; Compound 5 at 200 nM; nintedanib at 75 nM; pirfenidone at 50 μm; a combination of Compound 5 at 200 nM and nintedanib at 75 nM; a combination of Compound 5 at 200 nM and pirfenidone at 50 μm; or an Alk5 inhibitor at 1 μm. […] FIG. 4D is a bar graph showing relative expression of COL1A1 in precision cut lung slices (PCLS) from idopathic pulmonary fibrosis (IPF) lung tissue upon exposure to Compound 5, clinical standard of care compounds nintedanib (Nin) and pirfenidone (Pirf), and an ALK5 inhibitor, all versus DMSO control.
PCLS from a single IPF lung tissue sample were cultured for seven days with Compound 5 at concentrations of 200 μM, 2 nM, 60 nM, 200 nM, and 1 μM, along with 0.1% DMSO control and an Alk5 inhibitor at 1 μM. […] COL1A1 expression is also graphed for the PCLS in the presence of 0.1% DMSO control, and an Alk5 inhibitor at 1 μM.

As for `COC(=O)c1ccc2c(c1)NC(=O)/C2=C(\Nc1ccc(N(C)C(=O)CN2CCN(C)CC2)cc1)c1ccccc1` [nintedanib], in test [1] (acute bleomycin injured lung slices, FIG. 4B), the “increase in concentration over compound 5 needed to reduce lung slice Col1a1 expression by 50%” value is listed as 5.2 fold. In addition, the “lung slice Col1a1 expression compared to DMSO vehicle control slices” value with lung Col1a1 expression is reported as “slight increase”. Besides, the “COL1A1 expression, treatment alone” value in the test with COL1A1 expression is listed as “did not significantly reduce”.
With `Cc1ccc(=O)n(-c2ccccc2)c1` [pirfenidone], the “lung slice Col1a1 expression compared to DMSO vehicle control slices” value with lung Col1a1 expression is given as “slight increase”. Also, in the test with COL1A1 expression, the “COL1A1 expression, treatment alone” value is given as “did not significantly reduce”.
Take `CC(C)(C)c1cc(Br)cc([C@H](CC(=O)O)NC(=O)CNC(=O)c2cc(O)cc(NC3=NCC(O)CN3)c2)c1` (stereo partly drawn) [second pan-αV small molecule inhibitor, (3S)—N-[3-hydroxy-5-[(1,4,5,6-tetrahydro-5-hydroxy-2-pyrimidinyl)amino]benzoyl]glycyl-3-[3-bromo-5-(1,1-dimethylethyl)phenyl]-β-alanine]: in test [1], the “Type I Collagen gene Col1a1 expression, normalized to DMSO control slices” value is “decreased Type I Collagen gene Col1a1 expression comparably”.
For the molecule `Cc1cccc(-c2n[nH]cc2-c2ccc(F)c(-c3cnn(CCO)c3)c2)n1` [small molecule ALK5 inhibitor, 4-[2-Fluoro-5-[3-(6-methyl-2-pyridinyl)-1H-pyrazol-4-yl]phenyl]-1H-pyrazole-1-ethanol], the “Type I Collagen gene Col1a1 expression, normalized to DMSO control slices” value in test [1] was “greatest decrease”. Further, the “lung Col1a1 expression, normalized to DMSO control slices” value is “greatest decrease” in the test on lung Col1a1 expression (Compound 5 at approximate IC50 (αVβ6), selective inhibitors at ≥IC90, FIG. 3B) and “substantial, statistically significant” with COL1A1 expression (human IPF slices, 3 days, 3G9 ≥400 ng/mL, compound 5 179 nM, ALK5 inhibitor 1 μM, FIG. 4C). Further, in the test on lung Col1a1 expression, the “lung slice Col1a1 expression compared to DMSO vehicle control slices” value is “substantial, statistically significant (p<0.0001 vs vehicle) decrease”.
